Test system: human corneal epithelial cells (HCECs)
Experiment: IL-1β-stimulated cytokine production in primary human corneal epithelial cells (30-cytokine Luminex kit)
Conditions: IL-1β-stimulated HCECs, 18 h
Method: Primary HCECs were seeded in 24-well plates. […] Each treatment was performed in triplicate. Media were collected and used for determination of cytokine content using a 30-cytokine Luminex kit.
Median fluorescence intensity (WI) was used to obtain the concentration of each cytokines in pg/ml based on the standard curve of each cytokine assayed by Luminex. The linear range of the standard curve for each cytokine was used for determination of cytokine concentration. Duplicate values for each sample were averaged. Data were expressed as mean±SD. Statistical analysis was performed using one-way ANOVA-Dunnett's test, and P<0.05 was considered statistically significant.

## Cc1ccc2c(NCC(O)(CC(C)(C)c3cc(F)cc4c3OCC4)C(F)(F)F)cccc2n1 (centres unmarked) [BOL-303242-X]
  Potency of inhibition of IL-1β-stimulated production of GM-CSF, IL-8, and RANTES relative to dexamethasone: less potency compared to dexamethasone
Comparable potency of both
  Inhibition of IL-1β-stimulated cytokine production on 6 cytokines (IL-6, IL-7, MCP-1, TGF-α, TNF-α and VEGF): significantly inhibited

— US20110077270A1, “Compositions and Methods for Treating Ocular Inflammation with Lower Risk of Increased Intraocular Pressure” (priority 2009, published 2011)
